Results published in the supplement of paper PMC8882468.

Test system: HCI-001 (organoid from a triple-negative breast cancer xenograft)
Test: CTG-3D luminescence at 96 h relative to day-0 seeding control (ratio to day 0); higher = more growth / less cytotoxicity; PDxO 3D drug screen, 96 h, CTG-3D normalised to day-0 seeding control.
Details: 625 fM; days in culture: 240

Compound | CTG-3D luminescence at 96 h
CC(C)(C(=O)NCC(F)(F)C(F)(F)F)C(=O)N[C@@H]1C(=O)Nc2ccccc2-c2ccccc21 | 1.67
CCN(c1cc(C#CCN2CCOCC2)cc(C(=O)NCc2c(C)cc(C)[nH]c2=O)c1C)[C@H]1CC[C@H](N(C)CCOC)CC1 | 1.15
NC(=O)Nc1cc(-c2cccc(F)c2)sc1C(=O)N[C@H]1CCCNC1 [AZD7762] | 1.14
O=C(/C=C/c1cccnc1)NCCCCC1CCN(C(=O)c2ccccc2)CC1 [FK866] | 1.79
CCc1c2c(nc3ccc(O)cc13)-c1cc3c(c(=O)n1C2)COC(=O)[C@]3(O)CC [SN-38] | 1.46
CCN1CCN(Cc2ccc(Nc3ncc(F)c(-c4cc(F)c5nc(C)n(C(C)C)c5c4)n3)nc2)CC1 [abemaciclib] | 1.47
C=CCn1c(=O)c2cnc(Nc3ccc(N4CCN(C)CC4)cc3)nc2n1-c1cccc(C(C)(C)O)n1 [adavosertib] | 1.51

Same assay, conditions: 625 fM; days in culture: 260

Compound | CTG-3D luminescence at 96 h
CC(C)(C(=O)NCC(F)(F)C(F)(F)F)C(=O)N[C@@H]1C(=O)Nc2ccccc2-c2ccccc21 | 2.09
CCN(c1cc(C#CCN2CCOCC2)cc(C(=O)NCc2c(C)cc(C)[nH]c2=O)c1C)[C@H]1CC[C@H](N(C)CCOC)CC1 | 1.77
NC(=O)Nc1cc(-c2cccc(F)c2)sc1C(=O)N[C@H]1CCCNC1 [AZD7762] | 1.07
O=C(/C=C/c1cccnc1)NCCCCC1CCN(C(=O)c2ccccc2)CC1 [FK866] | 1.44
CCc1c2c(nc3ccc(O)cc13)-c1cc3c(c(=O)n1C2)COC(=O)[C@]3(O)CC [SN-38] | 1.29
CCN1CCN(Cc2ccc(Nc3ncc(F)c(-c4cc(F)c5nc(C)n(C(C)C)c5c4)n3)nc2)CC1 [abemaciclib] | 2.02
C=CCn1c(=O)c2cnc(Nc3ccc(N4CCN(C)CC4)cc3)nc2n1-c1cccc(C(C)(C)O)n1 [adavosertib] | 1.14

Same assay, conditions: 625 fM; days in culture: 269

Compound | CTG-3D luminescence at 96 h
CC(C)(C(=O)NCC(F)(F)C(F)(F)F)C(=O)N[C@@H]1C(=O)Nc2ccccc2-c2ccccc21 | 1.58
CCN(c1cc(C#CCN2CCOCC2)cc(C(=O)NCc2c(C)cc(C)[nH]c2=O)c1C)[C@H]1CC[C@H](N(C)CCOC)CC1 | 1.58
NC(=O)Nc1cc(-c2cccc(F)c2)sc1C(=O)N[C@H]1CCCNC1 [AZD7762] | 1.59
O=C(/C=C/c1cccnc1)NCCCCC1CCN(C(=O)c2ccccc2)CC1 [FK866] | 1.6
CCc1c2c(nc3ccc(O)cc13)-c1cc3c(c(=O)n1C2)COC(=O)[C@]3(O)CC [SN-38] | 1.73
CCN1CCN(Cc2ccc(Nc3ncc(F)c(-c4cc(F)c5nc(C)n(C(C)C)c5c4)n3)nc2)CC1 [abemaciclib] | 1.67
C=CCn1c(=O)c2cnc(Nc3ccc(N4CCN(C)CC4)cc3)nc2n1-c1cccc(C(C)(C)O)n1 [adavosertib] | 1.65

Same assay, conditions: 625 fM; days in culture: 327

Compound | CTG-3D luminescence at 96 h
CC(C)(C(=O)NCC(F)(F)C(F)(F)F)C(=O)N[C@@H]1C(=O)Nc2ccccc2-c2ccccc21 | 1.83
CCN(c1cc(C#CCN2CCOCC2)cc(C(=O)NCc2c(C)cc(C)[nH]c2=O)c1C)[C@H]1CC[C@H](N(C)CCOC)CC1 | 2.05
NC(=O)Nc1cc(-c2cccc(F)c2)sc1C(=O)N[C@H]1CCCNC1 [AZD7762] | 1.6
O=C(/C=C/c1cccnc1)NCCCCC1CCN(C(=O)c2ccccc2)CC1 [FK866] | 1.78
CCc1c2c(nc3ccc(O)cc13)-c1cc3c(c(=O)n1C2)COC(=O)[C@]3(O)CC [SN-38] | 2.1
CCN1CCN(Cc2ccc(Nc3ncc(F)c(-c4cc(F)c5nc(C)n(C(C)C)c5c4)n3)nc2)CC1 [abemaciclib] | 1.75
C=CCn1c(=O)c2cnc(Nc3ccc(N4CCN(C)CC4)cc3)nc2n1-c1cccc(C(C)(C)O)n1 [adavosertib] | 1.68

Same assay, conditions: 625 fM; days in culture: 346

Compound | CTG-3D luminescence at 96 h
CC(C)(C(=O)NCC(F)(F)C(F)(F)F)C(=O)N[C@@H]1C(=O)Nc2ccccc2-c2ccccc21 | 1.29
CCN(c1cc(C#CCN2CCOCC2)cc(C(=O)NCc2c(C)cc(C)[nH]c2=O)c1C)[C@H]1CC[C@H](N(C)CCOC)CC1 | 1.32
NC(=O)Nc1cc(-c2cccc(F)c2)sc1C(=O)N[C@H]1CCCNC1 [AZD7762] | 1.21
O=C(/C=C/c1cccnc1)NCCCCC1CCN(C(=O)c2ccccc2)CC1 [FK866] | 1.08
CCc1c2c(nc3ccc(O)cc13)-c1cc3c(c(=O)n1C2)COC(=O)[C@]3(O)CC [SN-38] | 1.11
CCN1CCN(Cc2ccc(Nc3ncc(F)c(-c4cc(F)c5nc(C)n(C(C)C)c5c4)n3)nc2)CC1 [abemaciclib] | 1.19
C=CCn1c(=O)c2cnc(Nc3ccc(N4CCN(C)CC4)cc3)nc2n1-c1cccc(C(C)(C)O)n1 [adavosertib] | 1.33

Same assay, conditions: 625 fM; days in culture: 364

Compound | CTG-3D luminescence at 96 h
CC(C)(C(=O)NCC(F)(F)C(F)(F)F)C(=O)N[C@@H]1C(=O)Nc2ccccc2-c2ccccc21 | 1.4
CCN(c1cc(C#CCN2CCOCC2)cc(C(=O)NCc2c(C)cc(C)[nH]c2=O)c1C)[C@H]1CC[C@H](N(C)CCOC)CC1 | 1.88
NC(=O)Nc1cc(-c2cccc(F)c2)sc1C(=O)N[C@H]1CCCNC1 [AZD7762] | 1.71
O=C(/C=C/c1cccnc1)NCCCCC1CCN(C(=O)c2ccccc2)CC1 [FK866] | 1.5
CCc1c2c(nc3ccc(O)cc13)-c1cc3c(c(=O)n1C2)COC(=O)[C@]3(O)CC [SN-38] | 1.76
CCN1CCN(Cc2ccc(Nc3ncc(F)c(-c4cc(F)c5nc(C)n(C(C)C)c5c4)n3)nc2)CC1 [abemaciclib] | 1.72
C=CCn1c(=O)c2cnc(Nc3ccc(N4CCN(C)CC4)cc3)nc2n1-c1cccc(C(C)(C)O)n1 [adavosertib] | 1.6

Test system: HCI-002 (organoid from a triple-negative breast cancer xenograft)
Test: as above
Details: 12.5 pM; days in culture: 62

Compound | CTG-3D luminescence at 96 h
CC(C)(C(=O)NCC(F)(F)C(F)(F)F)C(=O)N[C@@H]1C(=O)Nc2ccccc2-c2ccccc21 | 2.81
CCN(c1cc(C#CCN2CCOCC2)cc(C(=O)NCc2c(C)cc(C)[nH]c2=O)c1C)[C@H]1CC[C@H](N(C)CCOC)CC1 | 3.56
NC(=O)Nc1cc(-c2cccc(F)c2)sc1C(=O)N[C@H]1CCCNC1 [AZD7762] | 2.52
O=C(/C=C/c1cccnc1)NCCCCC1CCN(C(=O)c2ccccc2)CC1 [FK866] | 2.68
CCc1c2c(nc3ccc(O)cc13)-c1cc3c(c(=O)n1C2)COC(=O)[C@]3(O)CC [SN-38] | 3.11
CCN1CCN(Cc2ccc(Nc3ncc(F)c(-c4cc(F)c5nc(C)n(C(C)C)c5c4)n3)nc2)CC1 [abemaciclib] | 2.66
C=CCn1c(=O)c2cnc(Nc3ccc(N4CCN(C)CC4)cc3)nc2n1-c1cccc(C(C)(C)O)n1 [adavosertib] | 3.1

Same assay, conditions: 12.5 pM; days in culture: 82

Compound | CTG-3D luminescence at 96 h
CC(C)(C(=O)NCC(F)(F)C(F)(F)F)C(=O)N[C@@H]1C(=O)Nc2ccccc2-c2ccccc21 | 3.56
CCN(c1cc(C#CCN2CCOCC2)cc(C(=O)NCc2c(C)cc(C)[nH]c2=O)c1C)[C@H]1CC[C@H](N(C)CCOC)CC1 | 3.83
NC(=O)Nc1cc(-c2cccc(F)c2)sc1C(=O)N[C@H]1CCCNC1 [AZD7762] | 2.71
O=C(/C=C/c1cccnc1)NCCCCC1CCN(C(=O)c2ccccc2)CC1 [FK866] | 2.77
CCc1c2c(nc3ccc(O)cc13)-c1cc3c(c(=O)n1C2)COC(=O)[C@]3(O)CC [SN-38] | 3.04
CCN1CCN(Cc2ccc(Nc3ncc(F)c(-c4cc(F)c5nc(C)n(C(C)C)c5c4)n3)nc2)CC1 [abemaciclib] | 3.15
C=CCn1c(=O)c2cnc(Nc3ccc(N4CCN(C)CC4)cc3)nc2n1-c1cccc(C(C)(C)O)n1 [adavosertib] | 2.82

Same assay, conditions: 12.5 pM; days in culture: 91

Compound | CTG-3D luminescence at 96 h
CC(C)(C(=O)NCC(F)(F)C(F)(F)F)C(=O)N[C@@H]1C(=O)Nc2ccccc2-c2ccccc21 | 4.71
CCN(c1cc(C#CCN2CCOCC2)cc(C(=O)NCc2c(C)cc(C)[nH]c2=O)c1C)[C@H]1CC[C@H](N(C)CCOC)CC1 | 3.18
NC(=O)Nc1cc(-c2cccc(F)c2)sc1C(=O)N[C@H]1CCCNC1 [AZD7762] | 3.98
O=C(/C=C/c1cccnc1)NCCCCC1CCN(C(=O)c2ccccc2)CC1 [FK866] | 3.92
CCc1c2c(nc3ccc(O)cc13)-c1cc3c(c(=O)n1C2)COC(=O)[C@]3(O)CC [SN-38] | 3.6
CCN1CCN(Cc2ccc(Nc3ncc(F)c(-c4cc(F)c5nc(C)n(C(C)C)c5c4)n3)nc2)CC1 [abemaciclib] | 3.78
C=CCn1c(=O)c2cnc(Nc3ccc(N4CCN(C)CC4)cc3)nc2n1-c1cccc(C(C)(C)O)n1 [adavosertib] | 3.69
